One test addresses T1, APOL1 G2 (Homo sapiens, UniProt O14791, DEL388-389).
T1 construct: expressed in transfected cells; host or cells: HEK293 T-REx clonal line stably expressing GCaMP6f (HEK T-REx/GCaMP6f/APOL1 G2 K6.3), doxycycline induced
T1 sequence (O14791 with tags, fused parts or gaps DEL388-389): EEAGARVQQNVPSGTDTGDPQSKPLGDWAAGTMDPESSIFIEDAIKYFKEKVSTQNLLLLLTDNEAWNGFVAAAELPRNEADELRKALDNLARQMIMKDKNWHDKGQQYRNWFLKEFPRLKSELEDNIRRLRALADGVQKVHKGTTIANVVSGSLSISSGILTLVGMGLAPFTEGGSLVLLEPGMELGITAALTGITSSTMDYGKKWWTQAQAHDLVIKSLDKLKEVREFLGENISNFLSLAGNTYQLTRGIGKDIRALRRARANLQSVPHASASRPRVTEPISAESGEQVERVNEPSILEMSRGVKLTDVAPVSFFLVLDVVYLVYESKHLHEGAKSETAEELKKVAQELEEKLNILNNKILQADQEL
The experiment in a line: APOL1-mediated calcium transport (calcium influx) assay, HEK T-REx/GCaMP6f/APOL1 G2 K6.3 cells, FLIPR TETRA. In kind it is cell-based. The conditions noted are these: prevention of calcium influx; geometric mean of at least 2 assay runs; † = average of a technical replicate from a single assay run. The essentials: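 A HEK293 T-REx clone stably expressing GCaMP6f had APOL1 G2 induced with doxycycline (20 ng/mL solution added) for 6 h. Cells were then washed into Ca2+-free Tyrode's buffer (pH 7.4) and preincubated with compounds (duplicate 8-point) for 10 min at room temperature. Ca2+ injection to 5 mM final produced FLIPR GCaMP fluorescence, giving AC50 for influx inhibition (geometric mean, ≥2 runs).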

Test [1] concerns HEK293 cells overexpressing APOL1 G2. The experiment in a line: APOL1 G2 HEK293 cell rescue assay (reversal of cell death caused by overexpression of APOL1). The conditions noted are these: geometric mean of at least 2 assay runs, † = single assay run. In kind it is cell-based. The essentials: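 EC50 is the half-maximal effective concentration for reversing cell death driven by APOL1 G2 overexpression in HEK293 cells. Reported as geometric mean of at least 2 runs on separate days, each run averaging duplicate wells per plate; some values from a single run.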

Setting [2] is: Homo sapiens, HEK293, HEK293 overexpressing APOL1 G2.

The values below come from patent US12344610B2, “APOL1 inhibitors and methods of use” (Maze Therapeutics, Inc., priority 2022, dated 2025).

Structures are written as SMILES.

As for `CC(c1ccc(OCCN2CCC3(CC2)C(=O)Nc2ccc(Cl)cc23)cc1)S(C)(=O)=O` (single isomer, unassigned) [Compound 39, 5-chloro-1′-(2-{4-[(1S) or (1R)-1-methanesulfonylethyl]phenoxy}ethyl)-1,2-dihydrospiro[indole-3,4′-piperidin]-2-one], on APOL1 G2, the AC50 was determined as 745 nM. The EC50 in test [1] (setting [2]) was 56.7 nM.

As for `O=C1CCc2cc(OCCN3CCC4(CC3)C(=O)Nc3ccc(Cl)cc34)cnc2N1[C@H]1C[C@@H](CO)C1` (single isomer, unassigned) [Compound 319, 5-chloro-1′-[2-({7-oxo-8-[(cis)-3-(hydroxymethyl)cyclobutyl]-5,6,7,8-tetrahydro-1,8-naphthyridin-3-yl}oxy)ethyl]-1,2-dihydrospiro[indole-3,4′-piperidin]-2-one], the half-maximal activity concentration (AC50) on APOL1 G2 turned out to be 378 nM. In addition, the EC50 in test [1] (setting [2]) turned out to be 41.9 nM.

With `CC[C@]1(O)C[C@@H](N2C(=O)CCc3cc(OCCN4CCC5(CC4)C(=O)Nc4ccc(Cl)cc45)cnc32)C1` (single isomer, unassigned) [Compound 321, 5-chloro-1′-[2-({7-oxo-8-[(cis)-3-ethyl-3-hydroxycyclobutyl]-5,6,7,8-tetrahydro-1,8-naphthyridin-3-yl}oxy)ethyl]-1,2-dihydrospiro[indole-3,4′-piperidin]-2-one], the AC50 at APOL1 G2 amounted to 621 nM. Besides, in test [1] (setting [2]), the EC50 is 24.1 nM.

With `CC1(O)CC(CN2C(=O)CCc3cc(OCCN4CCC5(CC4)C(=O)Nc4ccc(Cl)cc45)cnc32)C1` (single isomer, unassigned) [Compound 322, 5-chloro-1′-{2-[(7-oxo-8-{[(trans) or (cis)-3-hydroxy-3-methylcyclobutyl]methyl}-5,6,7,8-tetrahydro-1,8-naphthyridin-3-yl)oxy]ethyl}-1,2-dihydrospiro[indole-3,4′-piperidin]-2-one], the concentration at half-maximal activity (AC50) on APOL1 G2 stood at 588 nM. Further, in test [1] (HEK293 overexpressing APOL1 G2), the concentration giving a half-maximal response (EC50) is 18.5 nM.

On to `C[C@]1(O)C[C@@H](n2ncc3cc(OCCN4CCC5(CC4)C(=O)Nc4ccc(Cl)cc45)cnc32)C1` (single isomer, unassigned) [Compound 357, 5-chloro-1′-[2-({1-[(cis)-3-hydroxy-3-methylcyclobutyl]-1H-pyrazolo[3,4-b]pyridin-5-yl}oxy)ethyl]-1,2-dihydrospiro[indole-3,4′-piperidin]-2-one], for which the concentration at half-maximal activity (AC50) at APOL1 G2 amounted to 412 nM. Further, the EC50 in test [1] (setting [2]) was 22.3 nM.

Take `CC1(O)CC(c2ncc(OCCN3CCC4(CC3)C(=O)Nc3ccc(Cl)cc34)cn2)C1` (single isomer, unassigned) [Compound 393, 5-chloro-1′-[2-({2-[(cis) or (trans)-3-hydroxy-3-methylcyclobutyl]pyrimidin-5-yl}oxy)ethyl]-1,2-dihydrospiro[indole-3,4′-piperidin]-2-one]: the half-maximal activity concentration (AC50) at APOL1 G2 is 1060 nM. Further, in test [1] (HEK293 overexpressing APOL1 G2), the concentration giving a half-maximal response (EC50) was 80.5 nM.

Turning to `C[C@]1(O)C[C@H](n2ncc3cc(OCCN4CCC5(CC4)C(=O)Nc4ccc(Cl)cc45)cnc32)C1` (single isomer, unassigned) [Compound 408, 5-chloro-1′-[2-({1-[(trans)-3-hydroxy-3-methylcyclobutyl]-1H-pyrazolo[3,4-b]pyridin-5-yl}oxy)ethyl]-1,2-dihydrospiro[indole-3,4′-piperidin]-2-one], the concentration at half-maximal activity (AC50) on APOL1 G2 worked out at 283 nM. Besides, in test [1] (setting [2]), the concentration giving a half-maximal response (EC50) stood at 23.1 nM.

On to `C[C@]1(O)C[C@@H](N2C(=O)CCc3cc(OCCN4CCC5(CC4)C(=O)Nc4ccc(OC(F)F)cc45)cnc32)C1` [Cmpd 325, 5-(difluoromethoxy)-1′-[2-({7-oxo-8-[(cis)-3-hydroxy-3-methylcyclobutyl]-5,6,7,8-tetrahydro-1,8-naphthyridin-3-yl}oxy)ethyl]-1,2-dihydrospiro[indole-3,4′-piperidin]-2-one], for which, at APOL1 G2, the half-maximal activity concentration (AC50) amounted to 791 nM. Moreover, in test [1] (setting [2]), the EC50 turned out to be 86.4 nM.

Turning to `CC(c1ncc(OCCN2CCC3(CC2)C(=O)Nc2ccc(Cl)cc23)cn1)S(C)(=O)=O` (centres unmarked) [Compound 1, 5-Chloro-1′-(2-{[2-(1-methanesulfonylethyl)pyrimidin-5-yl]oxy}ethyl)-1,2-dihydrospiro[indole-3,4′-piperidin]-2-one], on APOL1 G2, the AC50 came out at 703 nM. The EC50 in test [1] (setting [2]) is 120 nM.

Take `CS(=O)(=O)C1(c2ncc(OCCN3CCC4(CC3)C(=O)Nc3ccc(Cl)cc34)cn2)CC1` [Compound 4, 5-chloro-1′-(2-{[2-(1-methanesulfonylcyclopropyl)pyrimidin-5-yl]oxy}ethyl)-1,2-dihydrospiro[indole-3,4′-piperidin]-2-one]: on APOL1 G2, the AC50 came to 670 nM. Also, the concentration giving a half-maximal response (EC50) in test [1] (setting [2]) came out at 71.9 nM.

On to `Cc1nc(-c2ccc(OCCN3CCC4(CC3)C(=O)N(C)c3ccccc34)cc2)no1` [Compound 35, 1-methyl-1′-{2-[4-(5-methyl-1,2,4-oxadiazol-3-yl)phenoxy]ethyl}-1,2-dihydrospiro[indole-3,4′-piperidin]-2-one], for which the half-maximal activity concentration (AC50) on APOL1 G2 is 142 nM. In addition, the half-maximal effective concentration (EC50) in test [1] (setting [2]) was 574 nM.

Turning to `CC(=O)N1CCCc2cc(OCCN3CCC4(CC3)C(=O)N(C)c3ccccc34)ccc21` [Compound 36, 1′-{2-[(1-acetyl-1,2,3,4-tetrahydroquinolin-6-yl)oxy]ethyl}-1-methyl-1,2-dihydrospiro[indole-3,4′-piperidin]-2-one], at APOL1 G2, the AC50 stood at 223 nM. The EC50 in test [1] (setting [2]) came out at 919 nM.

For the compound `CS(=O)(=O)c1c(F)cc(OCCN2CCC3(CC2)C(=O)Nc2ccccc23)cc1F` [Compound 42, 1′-[2-(3,5-difluoro-4-methanesulfonylphenoxy)ethyl]-1,2-dihydrospiro[indole-3,4′-piperidin]-2-one], the AC50 on APOL1 G2 was found to be 316 nM. Also, in test [1] (setting [2]), the concentration giving a half-maximal response (EC50) was determined as 343 nM.

Regarding `O=C1Nc2ccc(Cl)cc2C12CCN(CCOc1ccc(S(=O)(=O)C3CC3)cc1)CC2` [Compound 43, 5-chloro-1′-{2-[4-(cyclopropanesulfonyl)phenoxy]ethyl}-1,2-dihydrospiro[indole-3,4′-piperidin]-2-one], on APOL1 G2, the AC50 is 507 nM. In addition, the EC50 in test [1] (setting [2]) amounted to 33.1 nM.

As for `O=C1Nc2ccccc2C12CCN(CCOc1ccc(S(=O)(=O)C(F)F)cc1)CC2` [Compound 44, 1′-[2-(4-difluoromethanesulfonylphenoxy)ethyl]-1,2-dihydrospiro[indole-3,4′-piperidin]-2-one], the AC50 at APOL1 G2 was 352 nM. Besides, the concentration for a half-maximal effect (EC50) in test [1] (setting [2]) stood at 116 nM.

With `NC(=O)c1ccc(OCCN2CCC3(CC2)C(=O)Nc2ccc(Cl)cc23)cc1` [Compound 45, 4-(2-{5-chloro-2-oxo-1,2-dihydrospiro[indole-3,4′-piperidin]-1′-yl}ethoxy)benzamide], on APOL1 G2, the concentration at half-maximal activity (AC50) was found to be 746 nM. In test [1] (setting [2]), the EC50 came to 122 nM.

On to `NC(=O)c1ccc(OCCN2CCC3(CC2)C(=O)Nc2ccc(Cl)cc23)cc1F` [Compound 46, 4-(2-{5-chloro-2-oxo-1,2-dihydrospiro[indole-3,4′-piperidin]-1′-yl}ethoxy)-2-fluorobenzamide], for which the AC50 at APOL1 G2 turned out to be 434 nM. The half-maximal effective concentration (EC50) in test [1] (setting [2]) was found to be 72.8 nM.

Consider `Cc1cc(OCCN2CCC3(CC2)C(=O)Nc2ccc(Cl)cc23)ccc1C(N)=O` [Compound 49, 4-(2-{5-chloro-2-oxo-1,2-dihydrospiro[indole-3,4′-piperidin]-1′-yl}ethoxy)-2-methylbenzamide], for which the AC50 on APOL1 G2 is 875 nM. Also, the EC50 in test [1] (setting [2]) was determined as 66.4 nM.

`CS(=O)(=O)c1ccc(OCCN2CCC3(CC2)C(=O)Nc2ccc(Cl)cc23)cc1C#N` [Compound 50, 5-(2-{5-chloro-2-oxo-1,2-dihydrospiro[indole-3,4′-piperidin]-1′-yl}ethoxy)-2-methanesulfonylbenzonitrile]: the AC50 on APOL1 G2 was found to be 622 nM. The EC50 in test [1] (setting [2]) was 24.9 nM.
